The record followed here is patent publication US20190119284A1, “ErbB Inhibitors and Uses Thereof” (The Regents of the University of California, priority 2016, published 2019).

Like-named read-outs stand apart in the source and are kept apart here.

Experiment [1] concerns the target CDK2 (Homo sapiens, UniProt P24941). The experiment is described as follows: Nanosyn in vitro kinase profiling: CDK2. Format: biochemical. As to conditions: for inhibition at 1 µM: compound at 1 μM. The method, then: (§1) This was confirmed by in vitro profiling against a panel of kinases, with compound 2 only showing potent inhibition of EGFR and Ab1 (Table 2).
(§2) In vitro Kinome Screen. In vitro profiling of compound 2 at 100 nM was conducted by Nanosyn.

Experiment [2] concerns the target PAK2 (Homo sapiens, UniProt Q13177). The experiment is described as follows: Nanosyn in vitro kinase profiling: PAK2. Format: biochemical. As to conditions: for inhibition at 1 µM: compound at 1 μM. The method, then:
as §1, §2

The target in experiment [3] is EPH-A2 (Homo sapiens, UniProt P29317). The experiment can be described thus: Nanosyn in vitro kinase profiling: EPH-A2. Format: biochemical. Conditions: for inhibition at 1 µM: compound at 1 μM. Here is the method: as §1, §2
The target in experiment [4] is DAPK1 (Homo sapiens, UniProt P53355). The experiment is described as follows: Nanosyn in vitro kinase profiling: DAPK1. The experiment is classed as biochemical. As to conditions: for inhibition at 1 µM: compound at 1 μM. The method, then: as §1, §2
Experiment [5] has as its target ABL1 (Homo sapiens, UniProt P00519). The experiment is described as follows: Nanosyn in vitro kinase profiling: ABL1. As to conditions: for inhibition at 1 µM: compound at 1 μM. The experiment is classed as biochemical. Here is the method: as §1, §2
Experiment [6] has as its target PKC-ALPHA (Homo sapiens, UniProt P17252). The experiment can be described thus: Nanosyn in vitro kinase profiling: PKC-ALPHA. Format: biochemical. As to conditions: for inhibition at 1 µM: compound at 1 μM. Here is the method: as §1, §2
For experiment [7], the target named is EGFR (Homo sapiens, UniProt P00533). The experiment is described as follows: Nanosyn in vitro kinase profiling: EGFR. The experiment is classed as biochemical. As to conditions: for inhibition at 1 µM: compound at 1 μM. Here is the method:
as §1, §2

Experiment [8] addresses KDR (Homo sapiens, UniProt P35968). The experiment is described as follows: Nanosyn in vitro kinase profiling: KDR. The experiment is classed as biochemical. As to conditions: for inhibition at 1 µM: compound at 1 μM. Here is the method: as §1, §2
Experiment [9] has as its target GSK-3-BETA (Homo sapiens, UniProt P49841). The experiment is described as follows: Nanosyn in vitro kinase profiling: GSK-3-BETA. The experiment is classed as biochemical. Conditions: for inhibition at 1 µM: compound at 1 μM. Here is the method: as §1, §2
Experiment [10] addresses T1, IKK-BETA (Homo sapiens, UniProt O14920).
T1 sequence (O14920 1-756): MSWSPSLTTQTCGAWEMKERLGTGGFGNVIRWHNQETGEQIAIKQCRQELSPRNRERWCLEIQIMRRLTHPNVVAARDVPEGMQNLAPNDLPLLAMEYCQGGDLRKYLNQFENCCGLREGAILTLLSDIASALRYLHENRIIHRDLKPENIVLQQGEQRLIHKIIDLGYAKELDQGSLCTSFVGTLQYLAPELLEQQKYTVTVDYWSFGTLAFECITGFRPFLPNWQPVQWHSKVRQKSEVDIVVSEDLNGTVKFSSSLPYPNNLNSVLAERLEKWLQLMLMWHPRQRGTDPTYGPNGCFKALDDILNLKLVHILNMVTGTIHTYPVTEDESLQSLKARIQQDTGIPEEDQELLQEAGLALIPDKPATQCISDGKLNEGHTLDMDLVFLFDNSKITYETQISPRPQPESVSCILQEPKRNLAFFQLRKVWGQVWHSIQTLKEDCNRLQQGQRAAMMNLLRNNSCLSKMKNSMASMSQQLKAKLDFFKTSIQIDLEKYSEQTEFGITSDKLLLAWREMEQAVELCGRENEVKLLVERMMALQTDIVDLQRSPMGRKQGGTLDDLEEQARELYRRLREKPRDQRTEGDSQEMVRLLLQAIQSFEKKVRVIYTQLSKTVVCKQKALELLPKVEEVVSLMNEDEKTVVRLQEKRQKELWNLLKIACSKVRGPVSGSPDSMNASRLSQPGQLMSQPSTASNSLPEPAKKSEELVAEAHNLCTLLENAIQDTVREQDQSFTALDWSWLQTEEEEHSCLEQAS
The experiment is described as follows: Nanosyn in vitro kinase profiling: IKK-BETA. Format: biochemical. Conditions: for inhibition at 1 µM: compound at 1 μM. The method, then:
as §1, §2

The target in experiment [11] is 2YF/3wt + NRG Ba/F3 cells (HER2YF/HER3wt) (Homo sapiens, UniProt P04626, Y1005F/Y1023F/Y1112F/Y1127F/Y1139F/Y1196F/Y1221F/Y1222F/Y1248F, cells depend on it). The experiment is described as follows: Ba/F3 proliferation assay, 2YF/3wt + NRG. Format: cell-based. Summed up: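 Ba/F3 cells stably expressing HER3 and HER2 with 9 C-terminal Tyr→Phe mutations, selected for NRG dependence after IL-3 withdrawal. Cells were given DMSO or compound plus NRG (50 ng/mL final); proliferation normalized to DMSO, fit by log(inhibitor) vs response with variable slope.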

GSK-3-BETA, sequence (P49841 whole entry): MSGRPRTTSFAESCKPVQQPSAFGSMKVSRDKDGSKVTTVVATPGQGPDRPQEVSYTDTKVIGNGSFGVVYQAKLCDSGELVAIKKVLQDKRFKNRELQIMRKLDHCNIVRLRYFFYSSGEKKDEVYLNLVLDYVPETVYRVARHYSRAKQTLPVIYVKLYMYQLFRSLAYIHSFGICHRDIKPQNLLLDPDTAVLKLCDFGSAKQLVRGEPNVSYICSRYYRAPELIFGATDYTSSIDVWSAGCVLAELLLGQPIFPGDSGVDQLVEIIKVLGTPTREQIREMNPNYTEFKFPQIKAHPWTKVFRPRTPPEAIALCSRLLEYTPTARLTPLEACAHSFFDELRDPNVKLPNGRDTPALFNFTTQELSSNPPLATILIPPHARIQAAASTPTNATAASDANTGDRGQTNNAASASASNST
PAK2, sequence (Q13177 whole entry, species assumed): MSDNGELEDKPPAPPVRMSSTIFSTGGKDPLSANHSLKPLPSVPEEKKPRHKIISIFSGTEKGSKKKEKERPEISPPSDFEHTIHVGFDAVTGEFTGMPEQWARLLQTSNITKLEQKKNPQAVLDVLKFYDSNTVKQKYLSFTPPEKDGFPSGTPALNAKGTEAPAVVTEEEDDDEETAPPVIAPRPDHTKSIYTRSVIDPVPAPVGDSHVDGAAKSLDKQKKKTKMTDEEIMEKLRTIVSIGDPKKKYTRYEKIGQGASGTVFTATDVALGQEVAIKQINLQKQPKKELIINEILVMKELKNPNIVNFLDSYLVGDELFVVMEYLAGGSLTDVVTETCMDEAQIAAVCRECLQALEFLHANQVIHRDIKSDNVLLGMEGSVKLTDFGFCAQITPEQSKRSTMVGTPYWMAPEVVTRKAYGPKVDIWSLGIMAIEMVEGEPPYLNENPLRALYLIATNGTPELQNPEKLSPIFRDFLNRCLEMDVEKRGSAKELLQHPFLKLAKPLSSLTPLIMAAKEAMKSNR
ABL1, sequence (P00519 whole entry): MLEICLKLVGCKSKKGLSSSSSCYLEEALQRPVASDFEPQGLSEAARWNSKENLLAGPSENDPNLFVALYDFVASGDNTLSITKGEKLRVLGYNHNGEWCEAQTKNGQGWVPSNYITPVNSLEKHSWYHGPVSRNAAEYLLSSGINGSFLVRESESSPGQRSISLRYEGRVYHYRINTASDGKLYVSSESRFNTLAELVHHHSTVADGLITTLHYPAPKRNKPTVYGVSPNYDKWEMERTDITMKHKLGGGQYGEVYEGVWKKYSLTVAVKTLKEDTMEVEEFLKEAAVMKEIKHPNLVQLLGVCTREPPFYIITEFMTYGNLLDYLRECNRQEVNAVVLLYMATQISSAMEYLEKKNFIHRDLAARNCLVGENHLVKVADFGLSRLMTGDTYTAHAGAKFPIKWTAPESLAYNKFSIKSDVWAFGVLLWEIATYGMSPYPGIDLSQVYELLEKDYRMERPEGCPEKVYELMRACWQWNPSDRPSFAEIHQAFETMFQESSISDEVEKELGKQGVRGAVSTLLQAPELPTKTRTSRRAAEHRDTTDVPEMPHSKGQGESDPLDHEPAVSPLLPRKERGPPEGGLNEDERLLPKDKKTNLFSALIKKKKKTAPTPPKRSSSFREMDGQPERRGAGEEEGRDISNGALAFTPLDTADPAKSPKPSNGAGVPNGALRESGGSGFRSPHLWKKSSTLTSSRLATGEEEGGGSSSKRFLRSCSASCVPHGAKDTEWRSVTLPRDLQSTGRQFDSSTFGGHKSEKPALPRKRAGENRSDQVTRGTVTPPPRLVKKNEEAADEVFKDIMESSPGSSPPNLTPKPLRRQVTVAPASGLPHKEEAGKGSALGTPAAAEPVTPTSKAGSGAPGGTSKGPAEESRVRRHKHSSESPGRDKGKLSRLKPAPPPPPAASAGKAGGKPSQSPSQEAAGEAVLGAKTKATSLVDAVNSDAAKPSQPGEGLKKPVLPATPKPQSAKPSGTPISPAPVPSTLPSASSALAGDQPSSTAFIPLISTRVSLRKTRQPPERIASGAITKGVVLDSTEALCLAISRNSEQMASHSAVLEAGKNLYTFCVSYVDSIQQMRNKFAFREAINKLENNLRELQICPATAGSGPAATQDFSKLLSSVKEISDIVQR
DAPK1, sequence (P53355 whole entry, species assumed): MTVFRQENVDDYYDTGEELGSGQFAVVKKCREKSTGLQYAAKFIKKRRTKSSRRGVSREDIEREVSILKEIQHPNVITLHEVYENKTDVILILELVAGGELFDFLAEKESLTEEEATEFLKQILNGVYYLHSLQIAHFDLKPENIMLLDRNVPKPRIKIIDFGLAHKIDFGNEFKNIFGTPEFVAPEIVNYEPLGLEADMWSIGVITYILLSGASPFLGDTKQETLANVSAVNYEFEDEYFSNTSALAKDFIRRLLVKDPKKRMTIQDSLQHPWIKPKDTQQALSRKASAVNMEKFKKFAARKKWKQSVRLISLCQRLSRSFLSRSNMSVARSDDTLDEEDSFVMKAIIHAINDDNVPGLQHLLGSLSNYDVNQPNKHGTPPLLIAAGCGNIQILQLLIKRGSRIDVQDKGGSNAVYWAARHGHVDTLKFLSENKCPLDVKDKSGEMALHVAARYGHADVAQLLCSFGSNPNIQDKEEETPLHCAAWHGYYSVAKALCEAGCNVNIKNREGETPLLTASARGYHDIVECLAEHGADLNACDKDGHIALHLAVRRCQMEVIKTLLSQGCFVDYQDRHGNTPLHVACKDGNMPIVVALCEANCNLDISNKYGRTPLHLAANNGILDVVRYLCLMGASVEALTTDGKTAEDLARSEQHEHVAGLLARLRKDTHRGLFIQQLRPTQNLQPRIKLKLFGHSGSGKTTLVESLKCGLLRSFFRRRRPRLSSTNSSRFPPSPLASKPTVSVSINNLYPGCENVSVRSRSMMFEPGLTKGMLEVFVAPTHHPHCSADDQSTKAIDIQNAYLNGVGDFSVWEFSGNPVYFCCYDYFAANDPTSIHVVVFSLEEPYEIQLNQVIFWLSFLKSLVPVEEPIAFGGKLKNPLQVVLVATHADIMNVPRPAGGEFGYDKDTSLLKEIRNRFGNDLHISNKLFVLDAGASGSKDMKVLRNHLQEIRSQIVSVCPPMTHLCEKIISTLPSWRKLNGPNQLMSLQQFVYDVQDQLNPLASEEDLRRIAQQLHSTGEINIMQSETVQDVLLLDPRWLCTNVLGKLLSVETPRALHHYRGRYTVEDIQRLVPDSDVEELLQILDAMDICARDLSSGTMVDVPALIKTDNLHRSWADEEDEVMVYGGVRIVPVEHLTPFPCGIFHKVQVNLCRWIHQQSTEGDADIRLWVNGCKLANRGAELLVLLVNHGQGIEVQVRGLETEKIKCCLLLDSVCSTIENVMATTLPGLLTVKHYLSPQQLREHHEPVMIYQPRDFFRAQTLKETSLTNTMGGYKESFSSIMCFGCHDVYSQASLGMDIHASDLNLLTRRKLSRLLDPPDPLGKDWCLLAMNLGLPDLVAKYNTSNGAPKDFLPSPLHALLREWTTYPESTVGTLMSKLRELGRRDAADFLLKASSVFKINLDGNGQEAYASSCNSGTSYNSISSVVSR
EGFR, sequence (P00533 25-1210): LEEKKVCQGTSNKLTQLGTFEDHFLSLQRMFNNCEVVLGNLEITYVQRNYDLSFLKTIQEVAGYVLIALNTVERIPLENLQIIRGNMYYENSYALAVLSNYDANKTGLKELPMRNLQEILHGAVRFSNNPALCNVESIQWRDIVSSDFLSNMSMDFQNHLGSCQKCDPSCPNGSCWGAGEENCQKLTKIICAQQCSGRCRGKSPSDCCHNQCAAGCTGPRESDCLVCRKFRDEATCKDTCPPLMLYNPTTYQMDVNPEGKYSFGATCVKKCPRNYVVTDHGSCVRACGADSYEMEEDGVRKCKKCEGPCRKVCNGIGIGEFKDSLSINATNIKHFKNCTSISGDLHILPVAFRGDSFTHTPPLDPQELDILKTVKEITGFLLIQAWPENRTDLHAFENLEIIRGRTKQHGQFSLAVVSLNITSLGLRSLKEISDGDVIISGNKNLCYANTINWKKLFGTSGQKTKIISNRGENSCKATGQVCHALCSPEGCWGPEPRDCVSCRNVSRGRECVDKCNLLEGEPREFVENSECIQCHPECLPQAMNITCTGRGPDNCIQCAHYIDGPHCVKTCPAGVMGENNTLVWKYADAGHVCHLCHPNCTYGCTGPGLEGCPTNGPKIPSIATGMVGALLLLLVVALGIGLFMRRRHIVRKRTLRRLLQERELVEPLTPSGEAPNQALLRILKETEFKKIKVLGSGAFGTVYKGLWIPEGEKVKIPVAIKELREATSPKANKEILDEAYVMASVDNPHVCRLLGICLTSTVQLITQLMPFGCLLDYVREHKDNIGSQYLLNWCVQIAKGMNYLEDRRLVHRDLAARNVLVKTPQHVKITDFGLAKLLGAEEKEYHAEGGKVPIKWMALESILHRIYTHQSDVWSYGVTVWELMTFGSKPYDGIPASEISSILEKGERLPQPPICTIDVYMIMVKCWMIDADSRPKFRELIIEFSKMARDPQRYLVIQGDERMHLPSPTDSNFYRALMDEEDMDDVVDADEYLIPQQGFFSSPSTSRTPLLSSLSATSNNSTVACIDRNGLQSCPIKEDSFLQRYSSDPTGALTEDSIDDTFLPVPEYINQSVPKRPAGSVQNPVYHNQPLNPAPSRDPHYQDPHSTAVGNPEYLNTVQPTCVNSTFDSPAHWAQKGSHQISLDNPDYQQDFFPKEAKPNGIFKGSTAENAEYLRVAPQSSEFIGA

Consider `COc1ccc(-c2ccco2)cc1Nc1ncnc2[nH]nc(-c3ccco3)c12` [compound 2, 3-(furan-2-yl)-N-(5-(furan-2-yl)-2-methoxyphenyl)-1H-pyrazolo[3,4-d]pyrimidin-4-amine], for which the inhibition – broadly, the relative decrease from the control value, in per cent – at 0.1 µM in experiment [1] (compound at 100 nM) is 4.14%; in [2] (compound at 100 nM), 0.085%; in experiment [3] (compound at 100 nM), 2.42%; in [4] (compound at 100 nM) it was -0.52%; in [5] (compound at 100 nM), 95.2%; in [6] (compound at 100 nM) it was 1.24%. Further, the inhibition at 0.1 µM is 95.6% in [7] (compound at 100 nM), 27.3% in experiment [8] (compound at 100 nM), 20.5% in experiment [9] (compound at 100 nM) and 1.92% in [10] (compound at 100 nM). For the same compound, the inhibition at 1 µM in experiment [1] was 17.6%; in experiment [2], 1.07%; in experiment [3], 21%; in [4], 1.43%; in [5], 97.2%; in experiment [6] it was 5.57%. Also, the inhibition at 1 µM was 96.9% in [7], 71.3% in [8], 68.8% in experiment [9] and 2.91% in experiment [10].

Consider `COc1ccc(-c2ccoc2)cc1Nc1ncnc2[nH]cc(-c3cc[nH]n3)c12` [compound 3, N-(5-(furan-3-yl)-2-methoxyphenyl)-5-(1H-pyrazol-3-yl)-7H-pyrrolo[2,3-d]pyrimidin-4-amine], for which the inhibition at 1 µM in experiment [1] was 10%; in [2], 3%; in experiment [3], 28%; in [4], -1%; in experiment [5] it was 98%; in experiment [6] it was 30%. Further, the inhibition at 1 µM in experiment [7] came out at 99%; in experiment [8], 74%; in [9] it was 40%; in [10], 8%. Moreover, in [11] (Table 4; ± S.D., n = 3; 48 h Cell Titer Glo; read-out: IC50, 2YF/3wt + NRG), the GI50 was found to be 6.8 ± 0.2 nM.

With `CS(=O)(=O)CCNCc1ccc(-c2ccc3ncnc(Nc4ccc(OCc5cccc(F)c5)c(Cl)c4)c3c2)o1` [lapatinib], in experiment [11] (read-out: IC50, 2YF/3wt + NRG; Table 4; ± S.D., n = 3; 48 h Cell Titer Glo), the GI50 is 63.6 ± 12.5 nM.
